The values that follow come from ChEMBL document CHEMBL3259787, “Discovery of two aminoglycoside antibiotics as inhibitors targeting the menin-mixed lineage leukaemia interface” (Bioorg Med Chem Lett, 2014).

One may read the Ki as the equilibrium dissociation constant of an inhibitor or competing ligand from its target. As usually defined, the Kd is the concentration at which binding is half-saturated. Low readings indicate higher affinity, high ones lower affinity.

The nature of test [1]: Inhibition of N-terminal FITC-labeled MBM1 interaction to menin (unknown origin) after 1 hr by fluorescence polarization assay. Details: species or system Homo sapiens. Background: In fluorescence polarisation assays a small probe gives low polarisation when free and higher when bound to something large.
Test [2] addresses T1, Menin (Homo sapiens) (UniProt O00255).
T1 sequence (whole entry): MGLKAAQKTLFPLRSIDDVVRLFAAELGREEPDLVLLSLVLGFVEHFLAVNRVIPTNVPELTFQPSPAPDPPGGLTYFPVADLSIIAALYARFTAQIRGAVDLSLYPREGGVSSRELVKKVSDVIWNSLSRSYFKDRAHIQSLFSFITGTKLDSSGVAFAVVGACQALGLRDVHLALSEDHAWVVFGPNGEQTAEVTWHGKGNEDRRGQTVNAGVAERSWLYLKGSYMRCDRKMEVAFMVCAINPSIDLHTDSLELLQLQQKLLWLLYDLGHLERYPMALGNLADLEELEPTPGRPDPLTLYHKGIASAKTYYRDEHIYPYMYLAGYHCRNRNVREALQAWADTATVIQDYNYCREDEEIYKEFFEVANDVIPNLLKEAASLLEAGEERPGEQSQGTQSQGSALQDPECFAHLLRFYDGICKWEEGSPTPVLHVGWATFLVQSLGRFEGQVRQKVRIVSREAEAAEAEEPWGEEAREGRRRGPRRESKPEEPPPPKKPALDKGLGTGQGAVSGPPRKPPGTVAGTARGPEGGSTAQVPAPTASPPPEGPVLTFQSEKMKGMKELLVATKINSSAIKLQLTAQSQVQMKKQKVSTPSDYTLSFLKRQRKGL
The experiment in a line: Binding affinity to menin (unknown origin) assessed as thermal stability at 50 uM by differential scanning fluorimetry (reference value: 40.46 degC).

Test [3] concerns the target T1, Menin (Homo sapiens). The experiment in a line: Binding affinity to menin (unknown origin) assessed as thermal stability at 200 uM by differential scanning fluorimetry (reference value: 40.46 degC). On the technique in general: In DSF a fluorescence change marks the thermal transition of the protein.
Test [4] has as its target T1, Menin (Homo sapiens). The experiment in a line: Binding affinity to menin (unknown origin) assessed as thermal stability at 400 uM by differential scanning fluorimetry (reference value: 40.46 degC).
The target in test [5] is T1, Menin (Homo sapiens). The experiment in a line: (§1) Binding affinity to menin (unknown origin) by isothermal titration calorimetry analysis.
Test [6] has as its target T2, Menin (Homo sapiens, UniProt O00255).
T2 sequence (O00255 whole entry): T1 sequence (whole entry)
The description is as §1.

Active and inactive are the calls of the source. No cut-off for these calls is given here.

`NC[C@H]1O[C@H](O[C@H]2[C@H](O)[C@@H](O[C@H]3O[C@H](CO)[C@@H](O)[C@H](N)[C@H]3O)[C@H](N)C[C@@H]2N)[C@H](N)C[C@@H]1O` [TOBRAMYCIN]: affinity in test [1] was put at a Ki of 59.9 µM. Also, the figures for the Tm in test [2], in test [3] and in test [4] were 41.4 °C, 42.6 °C and 43.4 °C, respectively. Also, in test [5], the outcome was inactive.
Molecule `NC[C@@H]1O[C@H](O[C@H]2[C@@H](O)[C@H](O[C@@H]3[C@@H](O)[C@H](N)C[C@H](N)[C@H]3O[C@H]3O[C@H](CN)[C@@H](O)[C@H](O)[C@H]3N)O[C@@H]2CO)[C@H](N)[C@@H](O)[C@@H]1O` [FRAMYCETIN] yielded a Ki in test [1] of 18.8 µM. In addition, the Tm amounted to 42.5 °C in test [2], 43.8 °C in test [3] and 45.2 °C in test [4]. Besides, the affinity in test [6], expressed as Kd, was 15.6 µM.
